This is an account of results in PubChem BioAssay AID2060899 (Molecular Pharmacology Branch, DTP, NCI, 2025).

Where only a bound is given, the exact number is not on record here.

Broadly, the IC50 is the concentration needed to halve the response being measured. The term viability, T/C denotes the result in the treated group divided by that in the control group, in per cent.

This assay has as its system 565726-208-R1-J5-PDC complex spheroids, growth inhibition. The experiment in a line: Anticancer human tumor 565726-208-R1-J5-PDC patient-derived pancreatic adenocarcinoma cell line growth inhibition [RAS]. The settings on record: for viability, T/C: stronger effect = lower value. The method in brief: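 Multi-cell-type spheroids: tumor cells plus HUVEC endothelial cells and mesenchymal stem cells. RAS-pathway inhibitors were combined with targeted agents, each dosed in half-log steps down from clinical Cmax, or from 10 microM when Cmax was unknown.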
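Further: spheroids exposed to compounds for seven days before readout.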
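Wherever viability, T/C is given: 100% = DMSO vehicle control viability.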

Turning to `CCc1c2c(nc3ccc(O)cc13)-c1cc3c(c(=O)n1C2)COC(=O)[C@]3(O)CC` + CCn1c(-c2cccnc2C(C)OC)c2c3cc(ccc31)N1CCOC(CC(NC(=O)C(C(C)C)N(C)C(=O)C3(F)CCN(C(=O)C#CC(C)(C)N(C)C)CC3)C(=O)N3CCCC(N3)C(=O)OCC(C)(C)C2)C1, the half-inhibitory concentration (IC50) (curve of first compound, second compound 0.000949 µM) was 2.34 nM; the IC50 (curve of first compound, second compound 0.003 µM) came to 2.11 nM; the IC50 (curve of first compound, second compound 0.00949 µM) was 2.33 nM; the IC50 (curve of first compound, second compound 0.03 µM) came to 2.06 nM; the IC50 (curve of first compound, second compound 0.0949 µM) worked out at 1.98 nM; the IC50 (curve of first compound, second compound 0.3 µM) turned out to be 1.64 nM. Moreover, the viability, T/C reads like this: (second compound 0.000949 µM, first compound 0.000949 µM) 79.2%; (second compound 0.000949 µM, first compound 0.003 µM) 39.5%; (second compound 0.000949 µM, first compound 0.00949 µM) 25.5%; (second compound 0.000949 µM, first compound 0.03 µM) 14.4%; (second compound 0.000949 µM, first compound 0.0949 µM) 8.88%; (second compound 0.000949 µM, first compound 0.3 µM) 4.44%. Also, the viability, T/C was 80.3% (second compound 0.003 µM, first compound 0.000949 µM); 33.2% (second compound 0.003 µM, first compound 0.003 µM); 23.6% (second compound 0.003 µM, first compound 0.00949 µM); 15.5% (second compound 0.003 µM, first compound 0.03 µM); 10.2% (second compound 0.003 µM, first compound 0.0949 µM); 5.03% (second compound 0.003 µM, first compound 0.3 µM). Besides, the viability, T/C (second compound 0.00949 µM, first compound 0.000949 µM) was 79%; the viability, T/C (second compound 0.00949 µM, first compound 0.003 µM) is 38.5%; the viability, T/C (second compound 0.00949 µM, first compound 0.00949 µM) is 27%; the viability, T/C (second compound 0.00949 µM, first compound 0.03 µM) was 13.2%; the viability, T/C (second compound 0.00949 µM, first compound 0.0949 µM) is 8.85%; the viability, T/C (second compound 0.00949 µM, first compound 0.3 µM) was 4.19%. The viability, T/C is 75.5% (second compound 0.03 µM, first compound 0.000949 µM); 34.5% (second compound 0.03 µM, first compound 0.003 µM); 23.8% (second compound 0.03 µM, first compound 0.00949 µM); 13.5% (second compound 0.03 µM, first compound 0.03 µM); 8.23% (second compound 0.03 µM, first compound 0.0949 µM); 3.69% (second compound 0.03 µM, first compound 0.3 µM). In addition, the viability, T/C is 73.3% (second compound 0.0949 µM, first compound 0.000949 µM); 35.2% (second compound 0.0949 µM, first compound 0.003 µM); 20.5% (second compound 0.0949 µM, first compound 0.00949 µM); 11.1% (second compound 0.0949 µM, first compound 0.03 µM); 6% (second compound 0.0949 µM, first compound 0.0949 µM); 2.81% (second compound 0.0949 µM, first compound 0.3 µM). The viability, T/C by setting is: (second compound 0.3 µM, first compound 0.000949 µM) 67.1%; (second compound 0.3 µM, first compound 0.003 µM) 30%; (second compound 0.3 µM, first compound 0.00949 µM) 16.7%; (second compound 0.3 µM, first compound 0.03 µM) 8.71%; (second compound 0.3 µM, first compound 0.0949 µM) 5.1%; (second compound 0.3 µM, first compound 0.3 µM) 2.77%.
With `Cc1nc(N2CCC3(CC2)COC(C)C3N)c(CO)nc1Sc1ccnc(N)c1Cl` (stereo unspecified), the viability, T/C by setting is: (compound 0.0316 µM) 106% [middle of 4 runs]; (compound 0.316 µM) 85.7% [middle of 4 runs]; (compound 1 µM) 81.1% [middle of 4 runs]. Also, the half-maximal inhibitory concentration (IC50) (curve of compound) was more than 10000 nM.
